The values below come from patent US12479870B2, “Base-modified cytidine nucleotides for leukemia therapy” (MEDIVIR AB, priority 2018, dated 2025).

The structures appear in SMILES notation.

Broadly, the CC50 is the concentration that lowers cell viability or growth by half. A low value points to harm at low concentration.

In one data set the test system is CEM cells. As to the kind of experiment: Leukemia cell line CC50 assay (Cell Counting Kit-8, 5 days), CEM. Particulars: Homo sapiens, CCRF-CEM, 120 h, ALL (T cell). It counts as cell-based. Here is the method: CEM cells (T-lymphoblast from acute lymphoblastic leukemia) acquired from Swedish Institute for Infectious Disease Control (SMI) were grown in complete cell medium: RPMI-1640 medium (without L-glutamine) Cat. no. R7509 (Sigma Aldrich), 10% Fetal Bovine serum (FBS) HyClone Cat. no. SV30160.03, lot no RAB35924 (GE Healthcare Life Sciences), Penicillin 50u/ml/Streptomycin 0.05 mg/ml PAA Cat. no. P11-010 from Fisher Scientific, 2 mM Ultra glutamine 1 Cat. no BE17-605E/U1 (Lonza). • Cell culture flask 75 cm2, Cat. no. 83.1813 from Sarstedt AB. • Compound dilution plate, 96-well, V-bottom PP plate, Nunc Cat. no.249944 from Thermo Scientific. • Cell assay plate, 96-well, Cat. no. 128009296 from Fisher Scientific • Cell Counting Kit-8 CK04 from Dojindo. • Test compounds were made up to 10 mM stock solution in DMSO
Leukemia cells were grown in a cell culture flask 75 cm2 with approximately 100 ml complete cell medium. The cells were counted using a Scepter-hand held automated cell counter, using 60 μm sensors (Millipore) and suspended in complete cell medium to 2×10^5cells. 100 μl of the cell suspension were seeded to all wells (2×10^4 cells/well). […]
(§1) Plate were read in the spectrophotometer at wavelength 450 nm with a reference filter of 620 nm.
(§2) CC50 values are calculated by plotting the degree of inhibition (compared to the vehicle ctrl) against the logarithm of the compound concentration. […]
On the technique in general: Formazan colour is commonly taken as a measure of viable cells.

The test system of the next data set is MV4-11 cells. Description: Leukemia cell line CC50 assay (Cell Counting Kit-8, 5 days), MV4-11. Particulars: Homo sapiens, MV4-11, 120 h, AML, MV411 cell line. The format is cell-based. Here is the method:
MV4-11 cells (human B-myelomonocytic leukemia) from ATCC Cat no. CRL-9591 were grown in complete cell medium: IMDM (w. GLUTAMAX-1) Cat no. 31980022 (Fisher Scientific), 10% Fetal Bovine serum (FBS) HyClone Cat. no. SV30160.03, lot no RAB35924 (GE Healthcare Life Sciences), Penicillin 50 u/ml/Streptomycin 0.05 mg/ml PAA Cat. no. P11-010 from Fisher Scientific.
(§3) Leukemia cells were grown in a cell culture flask 75 cm2 with approximately 100 ml complete cell medium. The cells were counted using a Scepter-hand held automated cell counter, using 60 μm sensors (Millipore) and suspended in complete cell medium to 2×10^5cells. 100 μl of the cell suspension were seeded to all wells (2×10^4 cells/well).
(§4) The compounds were tested in twelve concentrations, […], 50 ? BM−5×10^−10 μM. 100 μl from a compound dilution plate were transferred to the cell assay plate=200 μl/well total volume and incubated for 5 days, at 37° C., 5% CO2 incubator.
(§5) After 5 days, 10 μl of KIT-8 was added and the culture was incubated for 3-4 hours, at 37° C., 5% CO2 incubator.
as §1, §2

The next data set deals with THP-1 cells. Description: Leukemia cell line CC50 assay (Cell Counting Kit-8, 5 days), THP-1. It counts as cell-based. Particulars: Homo sapiens, THP-1, 120 h, AML, THP1 cell line. The procedure: THP-1 cells (human acute monocytic leukemia) from ATCC Cat. no TIB-202 were grown in complete cell medium: RPMI-1640 medium Gibco Cat. no.11835-063 (Fisher Scientific), 10% Fetal Bovine serum (FBS), HyClone Cat. no. SV30160.03, lot no RAB35924 (GE Healthcare Life Sciences), Penicillin 50 u/ml/Streptomycin 0.05 mg/ml PAA Cat. no. P11-010 from Fisher Scientific.
as §3, §4, §5, §1, §2

Another data set concerns leukemia cell lines. Description: Average CC50 over the leukemia cell lines of Table 1. Particulars: average over the leukemia cell lines of Table 1. It counts as cell-based. Here is the method:
as §3
CC50 values are calculated by plotting the degree of inhibition (compared to the vehicle ctrl) against the logarithm of the compound concentration. Result values in the dilution series are fitted to a 4-parameter sigmoidal dose-response curve described by the expression:
[formula] where: • A=Minimum • B=Slope. • C=Inflection point. The inflection point is defined as the point on the curve where the curvature changes direction or signs. • D=Maximum • F=fraction inhibition • The CC50 value is the x-value giving F=0.5, as tabulated in Table 1 below: […]

A further data set deals with Raji cells. As to the kind of experiment: Leukemia cell line CC50 assay (Cell Counting Kit-8, 5 days), Raji. It counts as cell-based. Particulars: Homo sapiens, 120 h, BL (B cell). Here is the method: Raji cells (B-lymphocyte from Burkitt's lymphoma) from ATCC Cat. no CCL-86 were grown in complete cell medium: RPMI-1640 medium Gibco Cat. no.11835-063 (Fisher Scientific), 10% Fetal Bovine serum (FBS), HyClone Cat. no. SV30160.03, lot no RAB35924 (GE Healthcare Life Sciences), Penicillin 50 u/ml/Streptomycin 0.05 mg/ml PAA Cat. no. P11-010 from Fisher Scientific.
as §3, §4, §5, §1, §2

In another data set the test system is U-937 cells. Description: Leukemia cell line CC50 assay (Cell Counting Kit-8, 5 days), U-937. The note with it: Homo sapiens, U-937, 120 h, AML, U937 cell line. It counts as cell-based. The procedure: U-937 cells (human histiocytic lymphoma) from ATCC Cat. no CRL-1593.2 were grown in complete cell medium: RPMI-1640 medium Gibco Cat. no.11835-063 (Fisher Scientific), 10% Fetal Bovine serum (FBS), HyClone Cat. no. SV30160.03, lot no RAB35924 (GE Healthcare Life Sciences), Penicillin 50u/ml/Streptomycin 0.05 mg/ml PAA Cat. no. P11-010 from Fisher Scientific.
as §3, §4, §5, §1, §2

Another data set deals with K-562 cells. As to the kind of experiment: Leukemia cell line CC50 assay (Cell Counting Kit-8, 5 days), K-562. It counts as cell-based. Particulars: Homo sapiens, 120 h, CML, K562 cell line. Here is the method: K-562 cells (human chronic myelogenous leukemia) from ATCC Cat. no CCL-243 were grown in complete cell medium: IMDM (w. L-glutamine, 25 mM Hepes, w/o Phenol red) Cat no. 21056-023 (Fisher Scientific), 10% Fetal Bovine serum (FBS) HyClone Cat. no. SV30160.03, lot no RAB35924 (GE Healthcare Life Sciences), Penicillin 50u/ml/Streptomycin 0.05 mg/ml Cat. no. SV30010 HyClone (Fisher Scientific)
as §3, §4, §5, §1, §2

In a further data set the test system is MOLT-4 cells. As to the kind of experiment: Leukemia cell line CC50 assay (Cell Counting Kit-8, 5 days), MOLT-4. The format is cell-based. The note with it: Homo sapiens, 120 h, ALL (T cell), MOLT-4 cell line. Here is the method:
MOLT-4 cells (human T-cell, acute lymphoblastic leukemia) from ATCC Cat. no CRL-1582 were grown in complete cell medium: RPMI-1640 medium Gibco Cat. no.11835-063 (Fisher Scientific), 10% Fetal Bovine serum (FBS) HyClone Cat. no. SV30160.03, lot no RAB35924 (GE Healthcare Life Sciences), Penicillin 50 u/ml/Streptomycin 0.05 mg/ml PAA Cat. no. P11-010 from Fisher Scientific
as §3, §4, §5, §1, §2

The test system of a further data set is HL60 cells. As to the kind of experiment: Leukemia cell line CC50 assay (Cell Counting Kit-8, 5 days), HL60. It counts as cell-based. The note with it: Homo sapiens, HL-60, 120 h, AML. The procedure:
HL60 cells (human acute promyelocytic leukemia) from ATCC Cat. no CCL-240 were grown in complete cell medium: IMDM Cat. no 330-2005 (ATCC), 20% Fetal Bovine serum (FBS) HyClone Cat. no. SV30160.03, lot no RAB35924 (GE Healthcare Life Sciences), Penicillin 50u/ml/Streptomycin 0.05 mg/ml PAA Cat. no. P11-010 from Fisher Scientific
as §3, §4, §5, §1
CC50 values are calculated by plotting the degree of inhibition (compared to the vehicle ctrl) against the logarithm of the compound concentration. Result values in the dilution series are fitted to a 4-parameter sigmoidal dose-response curve described by the expression: […]

Data set [1] can be described thus: Blood stability, murine whole blood. The format is in vitro ADME. The procedure:
Stability of compounds in blood was assessed following incubation in murine or human whole blood for up to 120 minutes. Remaining compound was quantified by LC-MS/MS and resulting data were used to calculate intrinsic clearance (CLint) values: […]

Data set [2] relates to advanced, cytarabine-treatment failure, leukemia. The note with it: cited from earlier work.
A short description of data set [3]: Tolerability in SCID mice with human Hep3b xenograft (body weight, clinical signs). Particulars: 25 mg/kg i.p. BID x 5, SCID mice. It counts as in vivo, mouse. Here is the method: Compounds were prepared in PBS, n=9 mice per group. Body weights were monitored daily in three SCID mouse populations:
wherein the 5 day BID commenced 21 days after subcutaneous implantation with a human Hep3b xenograft.
(A xenograft is tissue or cells of one species grown in another, often human tumour cells in immunodeficient mice.)

On to `CCC[C@H](C)OC(=O)[C@H](C)NP(=O)(OC[C@H]1OC[C@@H](n2cc(F)c(N)nc2=O)O1)Oc1cccc(C2CC2)c1` (single isomer, unassigned) [Prior art Ex 29 dia-2, reference compound], for which the CC50 with CEM cells was determined as 98 nM; in the data set with MV4-11 cells it was 7.8 nM; in the data set on THP-1 cells, 250 nM; with leukemia cell lines it was 310 nM; with Raji cells, 850 nM; in the data set with U-937 cells it was 240 nM. Besides, the CC50 came out at 720 nM in the data set on K-562 cells and 2.9 nM in the data set with MOLT-4 cells.

For the compound `CC[C@@H](C)OC(=O)[C@H](C)NP(=O)(OC[C@H]1OC[C@@H](n2cc(F)c(N)nc2=O)O1)Oc1ccccc1` (single isomer, unassigned) [Prior art Ex 32 dia 2, reference compound], the CC50 with CEM cells was 52 nM; in the data set on MV4-11 cells, 8.1 nM; with THP-1 cells, 200 nM; in the data set on leukemia cell lines, 350 nM; in the data set with Raji cells it was 1000 nM; in the data set with U-937 cells, 240 nM. Also, the CC50 with K-562 cells was found to be 440 nM; with MOLT-4 cells, 3.8 nM; with HL60 cells, 890 nM.

`Nc1nc(=O)n([C@@H]2CO[C@H](CO)O2)cc1F` [5-fluorotroxacitabine, 4-amino-5-fluoro-1-((25,4S)-2-(hydroxymethyl)-1,3-dioxolan-4-yl)pyrimidin-2(1H)-one, reference compound]: in [1], the “stability in mouse blood” value is reported as “stable in mouse blood”.

For `Nc1ccn([C@@H]2CO[C@H](CO)O2)c(=O)n1` [troxacitabine], the “patients with transient decrease in peripheral blood and marrow blasts” value in [2] is on record as “Four”. Moreover, the “tolerability observations (bodyweight, clinical signs)” value in [3] was “persistent bodyweight loss and clinical signs including piloerection, hunched posture and subdued behavior”.
